Active and inactive are the calls of the source. Where only a bound is given, the exact number is not on record here.

Assay [1] concerns the target DNA dC->dU-editing enzyme APOBEC-3G (Homo sapiens, UniProt Q9HC16). It counts as functional.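 Further: Dose-response counterscreen measuring inhibition of APOBEC3G DNA deaminase activity, run while confirming APOBEC3A inhibitors.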
The nature of assay [2]: NIH-3T3 fibroblast cytotoxicity, dose response, cytotoxicity control, cell-based, fluorescence, Alamar Blue, secondary assay (AID 2327).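 Further: NIH-3T3 mouse fibroblasts cultured with fluconazole at 8 µg/mL.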 In kind it is functional.
In assay [3] the target is DNA dC->dU-editing enzyme APOBEC-3A (Homo sapiens, UniProt P31941). Description: Dose Response confirmation of small molecule APOBEC3A DNA Deaminase Inhibitors via a fluorescence-based single-stranded DNA deaminase assay. [Related pubchem assays (depositor defined):AID493011, AID493024]. In kind it is functional.
In assay [4] the target is Glyceraldehyde-3-phosphate dehydrogenase (Homo sapiens, UniProt P04406).
Assay [5] deals with T1, Alkaline phosphatase, tissue-nonspecific isozyme (Homo sapiens, UniProt P05186).
T1 sequence (P05186 whole entry): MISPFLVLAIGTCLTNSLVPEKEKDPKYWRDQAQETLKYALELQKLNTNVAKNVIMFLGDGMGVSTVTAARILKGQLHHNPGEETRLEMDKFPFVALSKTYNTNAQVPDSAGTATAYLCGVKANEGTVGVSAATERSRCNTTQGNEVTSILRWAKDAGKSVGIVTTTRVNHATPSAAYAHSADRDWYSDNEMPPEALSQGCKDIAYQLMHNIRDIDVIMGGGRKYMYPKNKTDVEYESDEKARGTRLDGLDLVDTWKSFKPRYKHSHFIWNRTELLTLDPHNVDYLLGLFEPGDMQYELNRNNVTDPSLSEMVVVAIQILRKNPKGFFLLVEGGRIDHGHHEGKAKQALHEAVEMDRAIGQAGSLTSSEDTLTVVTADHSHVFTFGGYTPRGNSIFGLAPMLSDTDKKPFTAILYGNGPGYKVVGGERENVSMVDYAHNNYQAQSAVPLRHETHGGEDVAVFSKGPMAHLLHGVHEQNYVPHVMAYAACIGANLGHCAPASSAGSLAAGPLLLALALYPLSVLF
Briefly: potency against alkaline phosphatase TNAP – biochemical, luminescent, dose response, SAR follow-up (AID 1056).

Assay [6] in a line: microbe, parasite or virus in culture. In kind it is functional. Conditions: Mycobacterium tuberculosis.
Assay [7] concerns the target T2, Short transient receptor potential channel 4 (Mus musculus, UniProt Q9QUQ5).
T2 sequence (Q9QUQ5 whole entry): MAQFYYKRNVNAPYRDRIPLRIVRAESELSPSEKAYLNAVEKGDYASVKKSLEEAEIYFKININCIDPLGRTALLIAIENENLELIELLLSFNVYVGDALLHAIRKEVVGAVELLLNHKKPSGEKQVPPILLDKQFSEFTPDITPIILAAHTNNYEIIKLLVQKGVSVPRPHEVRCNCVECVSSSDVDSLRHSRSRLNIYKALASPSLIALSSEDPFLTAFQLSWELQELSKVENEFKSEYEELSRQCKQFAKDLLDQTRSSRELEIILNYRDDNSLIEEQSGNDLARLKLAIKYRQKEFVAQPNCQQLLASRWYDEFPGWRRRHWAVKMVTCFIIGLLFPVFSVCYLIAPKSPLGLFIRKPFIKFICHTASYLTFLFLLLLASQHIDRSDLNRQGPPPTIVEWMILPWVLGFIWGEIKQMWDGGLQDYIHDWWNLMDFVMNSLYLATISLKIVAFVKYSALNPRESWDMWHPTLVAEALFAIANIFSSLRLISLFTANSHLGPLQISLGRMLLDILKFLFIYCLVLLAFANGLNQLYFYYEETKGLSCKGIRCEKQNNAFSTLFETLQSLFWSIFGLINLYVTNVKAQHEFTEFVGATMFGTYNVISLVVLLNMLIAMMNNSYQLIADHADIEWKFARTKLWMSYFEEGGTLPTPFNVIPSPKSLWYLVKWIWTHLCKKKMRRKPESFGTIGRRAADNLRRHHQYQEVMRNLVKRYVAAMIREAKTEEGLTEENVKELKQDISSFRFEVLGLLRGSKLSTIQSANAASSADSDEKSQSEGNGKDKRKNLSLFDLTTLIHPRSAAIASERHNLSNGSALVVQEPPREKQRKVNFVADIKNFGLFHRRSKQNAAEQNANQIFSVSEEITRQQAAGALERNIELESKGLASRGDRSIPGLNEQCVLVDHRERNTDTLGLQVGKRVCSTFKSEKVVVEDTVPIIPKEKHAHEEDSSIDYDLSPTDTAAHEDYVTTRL
Briefly: calcium entry via TRPC4 opening agents – cell-based, HEK293 TRPC4/mu-opioid, Fluo-4 calcium, dose response (AID 434937). In kind it is functional.

Assay [8] can be described thus: Luminescence Cell-Based Dose Retest to Confirm Inhibitors of Cancer Stem Cells. [Related pubchem assays (depositor defined):AID2717, AID2721]. It counts as functional. Conditions: Homo sapiens.
In assay [9] the test system is HEK293. Description: inhibition of NOD1-driven NF-kB reporter – cell-based, luminescence, uHTS, primary screen (AID 1578). It counts as functional. The settings on record: Homo sapiens.
Assay [10] relates to HEK293. Description: cells. It counts as functional, cell-based. The settings on record: Homo sapiens.
For assay [11], the system named is HEK293. Briefly: cells. It counts as functional, cell-based. The settings on record: Homo sapiens. This is another data set of the same source.
The target in assay [12] is Heat shock protein HSP 90-alpha (Homo sapiens, UniProt P07900). In kind it is functional, organism-based.
In assay [13] the test system is HEK293. Briefly: NOD2 signaling inhibitors in MDP-stimulated cells, cell-based, uHTS, luminescence (AID 2001). It counts as functional. The settings on record: Homo sapiens.
Assay [14] has as its target T3, CAAX prenyl protease 2 (Homo sapiens, UniProt Q9Y256).
T3 sequence (Q9Y256 whole entry): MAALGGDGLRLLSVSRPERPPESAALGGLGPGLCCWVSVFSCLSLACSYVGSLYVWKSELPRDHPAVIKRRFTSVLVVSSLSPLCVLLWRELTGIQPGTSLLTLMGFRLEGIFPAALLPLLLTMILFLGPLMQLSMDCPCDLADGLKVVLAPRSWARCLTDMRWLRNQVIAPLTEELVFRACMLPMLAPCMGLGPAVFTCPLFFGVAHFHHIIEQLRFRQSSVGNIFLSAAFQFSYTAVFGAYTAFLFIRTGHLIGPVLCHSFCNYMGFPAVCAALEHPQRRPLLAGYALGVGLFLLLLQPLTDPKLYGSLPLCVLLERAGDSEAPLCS
Description: inhibition of Ras-converting CAAX protease Rce1 – biochemical, yeast membranes, quenched-peptide fluorescence, cherry-pick, dose response (AID 588849).

Assay [15] concerns the target Trypsin (Sus scrofa, UniProt P00761). Briefly: trypsin protease activity blockade – biochemical, quenched peptide fluorescence, cherry-pick, selectivity assay for Rce1 protease inhibitor project, dose response (AID 488789).
Assay [16] has as its target T4, Endoribonuclease toxin MazF (Escherichia coli K-12, UniProt P0AE70).
T4 sequence (P0AE70 whole entry): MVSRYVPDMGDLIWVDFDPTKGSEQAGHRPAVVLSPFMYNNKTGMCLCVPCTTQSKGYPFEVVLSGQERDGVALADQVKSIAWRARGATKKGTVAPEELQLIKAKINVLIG
Description: activation of MazEF endoribonuclease cleavage – biochemical, fluorescence, single-stranded RNA substrate, uHTS hits, dose response (AID 588481). In kind it is functional.

For assay [17], the target named is T4, Endoribonuclease toxin MazF. Briefly: substrate-only fluorescence increase artefacts – biochemical, single-stranded RNase substrate, counter-screen for MazEF activator project, dose response (AID 588502). It counts as functional. (In general: Counterscreens check selectivity or assay interference.)
The nature of assay [18]: NIH3T3 cell viability loss – ATP luminescence, mouse fibroblasts, counter-screen, dose response (AID 2010).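 Further: cells exposed to compound for about 90 hours before reading.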 It counts as functional, cell-based.
The nature of assay [19]: Trypanosoma cruzi growth suppression in host cells – NIH3T3 host cells, beta-gal luminescence, confirmation (AID 2044).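 Further: intracellular parasites grown in NIH/3T3 mouse fibroblasts as host cells; luminescent beta-galactosidase reporter signal from transgenic T. cruzi replicating inside host cells; inhibitors lower the luminescence signal.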 In kind it is functional, cell-based.
Assay [20] in a line: cells.
Assay [21] has as its system H4. Briefly: Luminescence Cell-Based Dose Response HTS to Identify Activators of 5'UTR Stem-Loop Driven Prion Protein mRNA Translation in H4 Neuroglioblastoma Cells. [Related pubchem assays: 1829 (Project Summary), 1814 (Primary HTS)]. In kind it is functional. Conditions: Homo sapiens.
The nature of assay [22]: Luminescence Cell-Based Dose Confirmation HTS to Identify Activators of 5'UTR Stem-Loop Driven Alpha-Synuclein mRNA Translation in H4 Neuroglioblastoma Cells. [Related pubchem assays: 1829 (Project Summary), 1814 (Primary HTS)]. In kind it is functional.
Assay [23] is described as follows: Luminescence Cell-Based Dose Response HTS to Identify Activators of Luciferase Translation or Activity in H4 […] Cells. [Related pubchem assays: 1829 (Project Summary), 1814 (Primary HTS)]. In kind it is functional.
Assay [24] in a line: cells. In kind it is functional, cell-based.
The test system of assay [25] is Vero. Briefly: cells. In kind it is functional. Conditions: Chlorocebus sabaeus.
Assay [26] has as its system Vero. Description: cells. It counts as functional, cell-based. The settings on record: Chlorocebus sabaeus.
Assay [27] can be described thus: cells. In kind it is functional, cell-based. The source holds these as a separate data set.
Assay [28] can be described thus: viability of uninfected HEp-2 cells – cell-based, HTS, cytotoxicity control for RSV inhibitor project, dose response (AID 2410). It counts as functional. Conditions: human respiratory syncytial virus.

Chain of DNA dC->dU-editing enzyme APOBEC-3G (Q9HC16 whole entry): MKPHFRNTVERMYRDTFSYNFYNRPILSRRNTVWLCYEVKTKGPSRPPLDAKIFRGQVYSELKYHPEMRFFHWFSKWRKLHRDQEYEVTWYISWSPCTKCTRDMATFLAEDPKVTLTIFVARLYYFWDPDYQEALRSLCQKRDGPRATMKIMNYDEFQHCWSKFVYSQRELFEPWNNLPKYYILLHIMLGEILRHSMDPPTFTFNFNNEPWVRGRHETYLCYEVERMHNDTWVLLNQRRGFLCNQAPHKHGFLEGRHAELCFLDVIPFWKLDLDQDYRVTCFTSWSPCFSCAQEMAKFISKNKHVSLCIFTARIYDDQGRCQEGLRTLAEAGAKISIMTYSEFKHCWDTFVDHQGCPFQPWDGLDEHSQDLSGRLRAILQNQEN
Chain of Glyceraldehyde-3-phosphate dehydrogenase (P04406 whole entry): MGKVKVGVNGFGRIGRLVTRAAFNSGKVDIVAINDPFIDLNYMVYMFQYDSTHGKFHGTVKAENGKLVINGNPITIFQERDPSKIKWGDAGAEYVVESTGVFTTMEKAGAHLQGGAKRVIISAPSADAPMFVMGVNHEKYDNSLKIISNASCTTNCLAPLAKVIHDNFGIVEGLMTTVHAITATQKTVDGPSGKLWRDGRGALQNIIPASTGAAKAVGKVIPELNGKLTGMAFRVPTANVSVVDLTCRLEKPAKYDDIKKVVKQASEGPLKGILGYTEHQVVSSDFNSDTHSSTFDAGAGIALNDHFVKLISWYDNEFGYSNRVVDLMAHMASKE
Chain of DNA dC->dU-editing enzyme APOBEC-3A (P31941 whole entry): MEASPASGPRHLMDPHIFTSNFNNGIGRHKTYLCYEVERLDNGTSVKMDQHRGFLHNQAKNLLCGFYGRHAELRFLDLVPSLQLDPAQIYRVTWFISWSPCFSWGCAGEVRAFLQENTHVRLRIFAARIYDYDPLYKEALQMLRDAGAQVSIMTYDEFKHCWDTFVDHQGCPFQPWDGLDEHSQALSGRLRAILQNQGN
Chain of Trypsin (P00761 whole entry): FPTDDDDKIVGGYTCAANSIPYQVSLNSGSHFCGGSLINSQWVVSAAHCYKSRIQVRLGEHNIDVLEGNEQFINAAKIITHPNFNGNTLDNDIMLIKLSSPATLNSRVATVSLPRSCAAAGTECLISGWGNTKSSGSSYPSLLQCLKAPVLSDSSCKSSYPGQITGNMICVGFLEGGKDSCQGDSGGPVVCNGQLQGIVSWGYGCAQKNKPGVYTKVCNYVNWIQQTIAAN

Usually IC50 stands for the concentration at which inhibition is half-maximal. The term EC50 denotes the concentration at which the effect is half-maximal. Take `CCOc1cc(/C=C(\C#N)C(=O)NCC2CCCO2)ccc1OCC(N)=O` (centres undefined): the values for the IC50 in assay [1] and in [3] were 11 µM (active) and 8.13 µM (active), respectively. In assay [2], the EC50 was > 160 µM (inactive).

Take `COC(=O)c1cc(-c2ccc(C)cc2)[nH]n1`: the IC50 in assay [4] is > 100 µM (not active); in assay [5], 3.43 µM (active).

Take `O=C(Nc1nnc(-c2ccccc2Cl)o1)c1nc2ccccc2s1`: in assay [6], the CC50 is > 40 µM (active). The EC50 in assay [7] was 4.73 µM (active).

Usually AC50 stands for the midpoint of the concentration-response curve, whichever way the signal moves. For the compound `CCOC(=O)C(=Cc1ccc(-n2cncn2)cc1)C(=O)OCC`, the half-maximal activity concentration (AC50) is 3.47 µM (active) in [8] and 7.37 µM (active) in assay [12]. The EC50 in assay [9] is > 20 µM (inactive). Besides, the IC50 is 5.19 µM (active) in assay [10], > 20 µM (inactive) in assay [11] and 10.9 µM (inactive) in [13].

`Nc1ccccc1Oc1ccc2ccccc2c1`: the AC50 in [14] is 5.84 µM (active); in assay [15], 6.89 µM (active).

Take `O=C(CC1C(=O)NCCN1Cc1ccccc1C(F)(F)F)NCCc1ccccn1` (centres undefined): the EC50 in assay [7] was 6.68 µM (active).

In the case of `Cc1ccc(S(=O)(=O)NN)c(C)c1N1CCCC1=O`, the EC50 in assay [16] is 58.2 µM (inactive); in [17], 10.6 µM (active).

Regarding `CN(C)CCCN(C(=O)c1ccc(S(=O)(=O)N2CCOCC2)cc1)c1nc2ccc(F)cc2s1`, the concentration for a half-maximal effect (EC50) was > 30 µM (not active) in assay [18], < 0.1 µM (active) in [19], 0.02 µM (active) in assay [20] and 9.44 µM (active) in [7].

As to `Nc1ccc2nc(SCC(=O)Nc3ccc(N4CCOCC4)c(Cl)c3)sc2c1`, the half-inhibitory concentration (IC50) in assay [1] is 8.08 µM (active); in assay [3], 3.65 µM (active). In addition, the EC50 in assay [21] is 49.1 µM (active); in assay [22], 14.9 µM (active); in assay [23], 9.41 µM (active).

Regarding `C#CCSc1nnc(N)[nH]1`, the IC50 in assay [4] is > 100 µM (not active); in [5], > 100 µM (inactive).

As for `CCOC(=O)C(=Cc1ccc(OCc2ccc([N+](=O)[O-])cc2)c(OC)c1)C(=O)OCC`, the AC50 in [8] is 1.79 µM (active). The EC50 in [21] is 0.246 µM (active); in assay [9], 10.6 µM (active); in assay [24], > 350 µM (not active); in assay [22], 0.171 µM (active); in assay [23], 1.18 µM (active); in assay [27], 70 µM (active). The concentration for half-maximal inhibition (IC50) in assay [10] was 2.07 µM (active); in assay [11], 12.8 µM (active); in assay [26] it was > 25 µM (active); in assay [13] it was 5.14 µM (active). The CC50 in assay [25] was 9.93 µM (active).

Regarding `Cc1ccc([N+](=O)[O-])cc1N/C=C1\CCCCC1=O`, the EC50 in assay [16] and in assay [17] was > 99 µM (inactive) throughout. The CC50 in assay [28] is 18.4 µM (active).
